{"source": "PubChem BioAssay AID180", "about": "(DTP/NCI, 2004)", "tested_on": "BDF1 mice, Adenocarcinoma 755 s.c., tumor weight T/C", "test": "NCI In Vivo Anticancer Drug Screen. Data for tumor model Adenocarcinoma 755 (subcutaneous) in B6D2F1 (BDF1) mice", "conditions": "endpoint: mean tumor weight, schedule: Q01DX011 (ip), vehicle: carboxymethylcellulose (CMC), higher = larger tumour", "how_it_was_run": "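Compound activity was tested in mice carrying transplanted tumors. Survival or tumor size was measured, and each value is the treated-group measurement divided by that of the vehicle-treated control group (T/C).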", "data": [{"smiles": "Nc1ncnc2c1nc(Br)n2C1CC(O)C(CO)O1", "note": "(stereo unspecified)", "values": [{"measurement": "T/C", "setting": "dose: 30.0 mg/kg/injection", "result": "89 % of control"}, {"measurement": "T/C", "setting": "dose: 60.0 mg/kg/injection", "result": "89 % of control"}, {"measurement": "T/C", "setting": "dose: 120.0 mg/kg/injection", "result": "75 % of control"}, {"measurement": "T/C", "setting": "dose: 240.0 mg/kg/injection", "result": "123 % of control"}]}, {"smiles": "O=c1[nH]c(S(=O)(=O)F)nc2nc[nH]c12", "values": [{"measurement": "T/C", "setting": "dose: 25.0 mg/kg/injection", "result": "104 % of control"}, {"measurement": "T/C", "setting": "dose: 75.0 mg/kg/injection", "result": "53 % of control"}]}, {"smiles": "COc1ccc(/C=N/Nc2nc3c([nH]2)c(=O)n(C)c(=O)n3C)cc1", "values": [{"measurement": "T/C", "setting": "dose: 30.0 mg/kg/injection", "result": "108 % of control"}, {"measurement": "T/C", "setting": "dose: 60.0 mg/kg/injection", "result": "94 % of control"}, {"measurement": "T/C", "setting": "dose: 480.0 mg/kg/injection", "result": "64 % of control"}]}, {"smiles": "Nc1nc(C(F)(F)F)c2ncn(Cc3ccccc3)c2n1", "values": [{"measurement": "T/C", "setting": "dose: 60.0 mg/kg/injection", "result": "92 % of control"}, {"measurement": "T/C", "setting": "dose: 120.0 mg/kg/injection", "result": "123 % of control"}]}]}
